Experimental data taken from patent US6908922B2, “Linear cyclic ureas” (Les Laboratoires Servier, priority 1999, dated 2005).

Experiments:
Assay type in all cases: cell-based
[1] = test system: thoracic aorta rings of a Wistar rat; test: Vascular protective effects with respect to endothelial dysfunction caused by an inhibitor of NOS (ACh relaxation of aortic rings in presence of LNA); conditions: LNA 3×10^−7M, difference in maximum ACh relaxation with/without product
Experimental: Under standard in vitro conditions, relaxation of aortic rings caused by acetylcholine (ACh), which relaxation is entirely dependent on the presence of endothelium, is the reflection of the production of NO (stimulated by ACh), which by diffusing to smooth muscle cells brings about arterial relaxation (Nature, 1980, 288, 373). The compounds of the invention were tested in respect of two models involving two different mechanisms implicated in the endothelial dysfunction observed in pathology: • the first model consists of causing inhibition of the relaxation due to ACh by blocking the enzymatic activity (endothelial NOS) responsible for the production of NO; • the second model consists of causing oxidative stress in vitro using an enzymatic system that generates O2^− (xanthine oxidase—XO and hypoxanthine—Hypo).
The thoracic aorta of a Wistar rat (325-375 g), anaesthetised by the intraperitoneal route using pentobarbital sodium (30 mg/kg), is removed and dissected into rings having a length of 3 mm. Each ring is suspended from an isometric tension sensor connected to a recording system and the initial tension applied is 2.5 g. The physiological solution used, which is thermostatically maintained at 37° C. and oxygenated (95% O2+5% CO2), comprises (in mM): NaCl 112.0; KCl 5.0; CaCl2 2.5; KH2PO4 1.0; MgSO4 1.2; NaHCO3 25.0; glucose 11.5; Ca-EDTA 0.016.
After a 90-minute stabilisation period, the preparations are contracted using phenylephrine (PHE 10^−6M) and relaxed by adding 10^−5M of acetylcholine in order to verify the integrity of the endothelial layer. If that is confirmed, the preparations are rinsed and a concentration of the product under test is added to the medium followed by 3×10^−7M of N^G-nitro-L-arginine (LNA). The preparations are again contracted using phenylephrine and, after 30 minutes, the relaxations due to acetylcholine (ACh-10^−8M to 10^−5M) are assessed in the presence of indomethacin (10^−5M).
The relaxation values are expressed as a percentage relative to the maximum contraction caused by PHE. […]

[2] = test system: aortic rings of New Zealand rabbits; test: Protective vascular effects with respect to endothelial dysfunction caused by a system generating O2^− (XO-Hypo), aortic rings; conditions: compound at 3×10^−8M; rabbit aortic rings; XO 3 mU/ml, Hypo 10^−4M
[3] = test system: rat aortic rings; test: Assessment of aortic production of cGMP stimulated by ACh in the presence of LNA (radioimmunoassay); conditions: compound at 10^−7M, 30-minute incubation; ACh 10^−5M 1 minute; LNA 3×10^−6M; isobutylmethylxanthine 10^−5M
Experimental: By diffusing to the smooth muscle cells, the NO produced by the endothelial cells activates soluble guanylate cyclase, which brings about an increase in cyclic GMP, which is responsible for relaxation.
The rat aortic rings are prepared as previously. The effects of 30-minute incubation of compounds of the invention at different concentrations are assessed on the production of cGMP stimulated by ACh (10^−5M-1 minute) in the presence of LNA (3×10^−6M). The said experiments are carried out in the presence of isobutylmethylxanthine (10^−5M) in order to avoid degradation of the cGMP by phosphodiesterases. The rings are frozen in liquid nitrogen and maintained at −80° C. until the assay is carried out. The cGMP content is assessed by radioimmunoassay and expressed in relation to the amount of proteins contained in the tissue (assay by the Bradford method).

SMILES: O=C(NCCN1CCC(COc2ccccc2)CC1)N1CCc2ccccc21 [Example 35, N-{2-[4-(Phenoxymethyl)-1-piperidyl]ethyl}-1-indolinecarboxamide]
- inhibition of the endothelial dysfunction caused by LNA ([1]; compound at 3×10^−8M): 26%
- inhibition of the endothelial dysfunction caused by LNA ([1]; compound at 10^−7M): 29%
- inhibition of the endothelial dysfunction caused by LNA ([1]; compound at 10^−8M): 8%
- inhibition of the endothelial dysfunction caused by the XO-Hypo combination [2]: 17%
- increase in the production of cGMP stimulated by ACh in the presence of LNA [3]: 28.1%
